Source: patent US9481719B2, “Recombinant production of peptides” (BASF SE, priority 2009, dated 2016)
No end group written: not given here.

Key:
Escherichia coli = conditions: compared to the starting fusion; cited from earlier work
Bacillus subtilis = conditions: compared to the starting fusion; cited from earlier work
E. coli B = assay: Growth inhibition of E. coli B cultures in LB medium (optical density after 24 h); format: cell-based
Experimental: Bacterial growth was monitored by measuring the optical density after 24 h. […] For this, said carboxyl groups were activated with 1-ethyl-3-(3-dimethylaminopropyl)carbodiimide hydrochloride and N-hydroxy-sulfosuccinimide, and amidated by subsequent addition of ammonia.

## KWKLFKKIPKFLHLAKKF (P18 Peptide) [SEQ ID NO:6, cecropin A-magainin 2 fusion peptide development described by Shin et al. 1999]
Escherichia coli
  antibacterial activity with respect to Escherichia coli: not adversely affected
Bacillus subtilis
  antibacterial activity with respect to Bacillus subtilis: not adversely affected

## PGKWKLFKKIPKFLHLAKKFG (P18 Peptide) [antimicrobial peptide released by acidic cleavage from a recombinant repetitive precursor protein]
E. coli B; E. coli B in LB medium, starting optical density 0.1 at 600 nm, shaking at 37° C., 24 h
  peptide concentration for complete inhibition of growth (optical density at 600 nm after 24 h<0.15): ≥ 31 ppm

## amidated P18 peptide: P18 peptide (SEQ ID NO: 23) whose C-terminal carboxyl group is amidated (PGKWKLFKKIPKFLHLAKKFG-NH2)
E. coli B; C-terminal carboxyl group amidated (EDC / N-hydroxy-sulfosuccinimide, ammonia)
  antimicrobial activity after amidating the C-terminal carboxyl group, relative to non-amidated P18: improve the antimicrobial activity further
